Source: US20250339399A1, “SUPRAMOLECULAR SELF-ASSEMBLY SYSTEM” (Beijing Creatron Institute of Pharmaceutical Research Co., …, priority 2022, published 2025)

How the values were obtained:
[1] = Guest molecule concentration after incubation in initial medium without polymer (Comparative Example 1); assay type: physicochemical; details: 37° C.
Procedure: pH 2.0 hydrochloric acid, pH 4.5 acetate, and pH 6.5, pH 6.8, or pH 7.4 phosphate buffer solutions were prepared. The selection of each initial medium followed the principle that the solubility in the initial medium of the selected targets (or active ingredients) should low enough, but should meet the detection sensitivity and accuracy requirements of the corresponding analytical methods. Each buffer as initial media was placed in a 50 ml test tube with a stopper, shaken in a constant temperature air shaker at 37° C.±0.5° C., with an amplitude of 200 rpm, and incubated for 1 hour. […] Samples were taken at 0.5 h, 3 h and 6 h after incubation, centrifuged at 37° C., 13000 rpm for 5 minutes, and the supernatant was diluted at least 10 times with the mobile phase under the target analyte analytical method, filtered, the initial filtrate was discarded, and the continued filtrate was used as the test solution for injection analysis. The corresponding HPLC method under each target object item in Table 8 was used to determine the content of each target substance. When the solubility of the target in the initial medium is below the quantitative limit of the analytical method, a small amount of surfactant, such as sodium dodecyl sulfate (SDS), Tween20, or Tween80, can be added appropriately.
The above targets were incubated at 37° C.±0.5° C. for different time in an initial medium without any polymer. Each solid target formed by molecular stacking was removed by centrifugation, and the supernatant was analyzed using the HPLC method under each target item (see Table 8). The theoretical addition concentration of each target when its supramolecular self-assembly system was built was determined by its maximum dose in clinical use.

[2] = Binary supramolecular self-assembly systems of polymer and target: guest concentration over incubation time (Comparative Example 2); assay type: physicochemical
Procedure: Experiments were conducted according to the steps in Comparative Example 1, and quantitative analysis was carried out using the analytical method for each target to investigate the regulation ability […] stacking.

[3] = cited from earlier work
[4] = binary system with 0.5% polymer 101, incubation 0.5 h
[5] = binary system with 0.5% polymer 101, incubation 3 h
[6] = binary system with 0.5% polymer 101, incubation 6 h
[7] = binary system with 0.5% polymer 102, incubation 0.5 h
[8] = binary system with 0.5% polymer 102, incubation 3 h
[9] = binary system with 0.5% polymer 102, incubation 6 h
[10] = binary system with 0.5% polymer 103, incubation 0.5 h
[11] = binary system with 0.5% polymer 103, incubation 3 h
[12] = binary system with 0.5% polymer 103, incubation 6 h
[13] = binary system with 0.5% polymer 106, incubation 0.5 h
[14] = binary system with 0.5% polymer 106, incubation 3 h
[15] = binary system with 0.5% polymer 106, incubation 6 h
[16] = binary system with 0.5% polymer 107, incubation 0.5 h
[17] = binary system with 0.5% polymer 107, incubation 3 h
[18] = binary system with 0.5% polymer 107, incubation 6 h
[19] = binary system with 0.5% polymer 110, incubation 0.5 h
[20] = binary system with 0.5% polymer 110, incubation 3 h
[21] = binary system with 0.5% polymer 110, incubation 6 h

| SMILES | Concentration of the target in the solution measured after different incubation time [2, 4] | Concentration of the target in the solution measured after different incubation time [2, 5] | Concentration of the target in the solution measured after different incubation time [2, 6] | Concentration of the target in the solution measured after different incubation time [2, 7] | Concentration of the target in the solution measured after different incubation time [2, 8] | Concentration of the target in the solution measured after different incubation time [2, 9] | Concentration of the target in the solution measured after different incubation time [2, 10] | Concentration of the target in the solution measured after different incubation time [2, 11] | Concentration of the target in the solution measured after different incubation time [2, 12] | Concentration of the target in the solution measured after different incubation time [2, 13] | Concentration of the target in the solution measured after different incubation time [2, 14] | Concentration of the target in the solution measured after different incubation time [2, 15] | Concentration of the target in the solution measured after different incubation time [2, 16] | Concentration of the target in the solution measured after different incubation time [2, 17] | Concentration of the target in the solution measured after different incubation time [2, 18] | Concentration of the target in the solution measured after different incubation time [2, 19] | Concentration of the target in the solution measured after different incubation time [2, 20] | Concentration of the target in the solution measured after different incubation time [2, 21] | LogD7.4 or Log P [3] | Concentration of guest molecule measured after different incubated time ([1]; 0.5 h, pH 6.8 phosphate buffer) | other results |
| --- | --- | --- | --- | --- | --- | --- | --- | --- | --- | --- | --- | --- | --- | --- | --- | --- | --- | --- | --- | --- | --- |
| CCOc1nc2cccc(C(=O)OC(C)OC(=O)OC3CCCCC3)c2n1Cc1ccc(-c2ccccc2-c2nnn[nH]2)cc1 (centres unmarked) [Candesartan Cilexetil, candesartan cilexetil] | 135.3 µg/mL | 34.5 µg/mL | 18.4 µg/mL | 47.0 µg/mL | 43.8 µg/mL | 4.9 µg/mL | 91.6 µg/mL | 110.5 µg/mL | 120.7 µg/mL | 103.1 µg/mL | 16.2 µg/mL | 18.8 µg/mL | 189.1 µg/mL | 33.7 µg/mL | 28.8 µg/mL | 4.7 µg/mL | 18.3 µg/mL | 3.3 µg/mL | 5.31 |  | Concentration of guest molecule measured after different incubated time ([1]; 0.5 h, pH 4.5 acetate buffer): 3.8 µg/mL; Concentration of guest molecule measured after different incubated time ([1]; 3 h, pH 4.5 acetate buffer): 2.1 µg/mL; Concentration of guest molecule measured after different incubated time ([1]; 6 h, pH 4.5 acetate buffer): 2.0 µg/mL |
| COC1=CC(=O)C[C@@H](C)[C@]12Oc1c(Cl)c(OC)cc(OC)c1C2=O [Griseofulvin, griseofulvin] | 221.0 µg/mL | 187.9 µg/mL | 171.7 µg/mL | 24.1 µg/mL | 23.2 µg/mL | 28.6 µg/mL | 51.8 µg/mL | 39.8 µg/mL | 39.1 µg/mL | 67.9 µg/mL | 62.8 µg/mL | 60.7 µg/mL | 109.2 µg/mL | 93.9 µg/mL | 88.6 µg/mL | 27.1 µg/mL | 23.6 µg/mL | 26.3 µg/mL | 2.17 |  | Concentration of guest molecule measured after different incubated time ([1]; 0.5 h, 0.1% SDS in pH 6.8 phosphate buffer): 35.6 µg/mL; Concentration of guest molecule measured after different incubated time ([1]; 3 h, 0.1% SDS in pH 6.8 phosphate buffer): 27.4 µg/mL; Concentration of guest molecule measured after different incubated time ([1]; 6 h, 0.1% SDS in pH 6.8 phosphate buffer): 24.1 µg/mL |
| Cc1c(C)c2c(c(C)c1O)CC[C@@](C)(CCC[C@H](C)CCC[C@H](C)CCCC(C)C)O2 [Vitamin E, vitamin E] |  |  |  | 28.6 µg/mL | 57.9 µg/mL | 36.4 µg/mL |  |  |  |  |  |  |  |  |  |  |  |  | 10.50 | 20.9 µg/mL | Concentration of guest molecule measured after different incubated time ([1]; 3 h, pH 6.8 phosphate buffer): 17.9 µg/mL; Concentration of guest molecule measured after different incubated time ([1]; 6 h, pH 6.8 phosphate buffer): 11.9 µg/mL |
| CC1=C(/C=C/C(C)=C/C=C/C(C)=C/CO)C(C)(C)CCC1 [Vitamin A, vitamin A] |  |  |  | 80.5 µg/mL | 80.2 µg/mL | 75.7 µg/mL |  |  |  |  |  |  |  |  |  |  |  |  | 4.69 | 57.2 µg/mL | Concentration of guest molecule measured after different incubated time ([1]; 3 h, pH 6.8 phosphate buffer): 51.1 µg/mL; Concentration of guest molecule measured after different incubated time ([1]; 6 h, pH 6.8 phosphate buffer): 53.0 µg/mL |
| CC1(C)CCC(CN2CCN(c3ccc(C(=O)NS(=O)(=O)c4ccc(NCC5CCOCC5)c([N+](=O)[O-])c4)c(Oc4cnc5[nH]ccc5c4)c3)CC2)=C(c2ccc(Cl)cc2)C1 [Venetoclax, venetoclax] | 233.6 µg/mL | 249.5 µg/mL | 252.6 µg/mL | 151.6 µg/mL | 254.9 µg/mL | 272.1 µg/mL | 78.6 µg/mL | 72.9 µg/mL | 59.5 µg/mL | 232.2 µg/mL | 250.5 µg/mL | 156.8 µg/mL | 152.2 µg/mL | 153.1 µg/mL | 156.8 µg/mL | 385.5 µg/mL | 534.6 µg/mL | 566.2 µg/mL | 6.88 | 19.8 µg/mL | Concentration of guest molecule measured after different incubated time ([1]; 3 h, pH 6.8 phosphate buffer): 12.4 µg/mL; Concentration of guest molecule measured after different incubated time ([1]; 6 h, pH 6.8 phosphate buffer): 9.6 µg/mL |
